Measurements published in paper PMC10823514, “Target Identification of a Class of Pyrazolone Protein Aggregation Inhibitor Therapeutics for Amyotrophic Lateral Sclerosis” (ACS Central Science, 2023).

Experiment: PRAPP photolysis under 312 nm UV, followed by HPLC
Assay type: physicochemical
Conditions: PBS under 312 nm UV irradiation; irradiation at 312 nm, 100 μM in PBS pH 7.4; read-out: photolysis half-life (T1/2)
Procedure: The PRAPP (100 μM) was dissolved in PBS (50 mM, pH 7.4 [1% DMSO v/v]) and irradiated with UV light (λ = 312 nm, 120 V, 60 Hz, 0.2 A [Spectroline model EB-160C], distance ∼4 cm). UV light was removed from the reaction mixtures at varying time points (1, 2, 5, 10, and 20 min) and immediately analyzed by HPLC-UV–vis278 nm (injection volume of 5 μL). PRAPP % remaining was determined based on the area under the curve (AUC) of the UV–vis278 nm chromatogram. A first-order exponential decay curve was generated based on the AUC of the UV–vis chromatogram at 0, 1, 2, 5, 10, and 20 min and used to determine t1/2 of photolysis.

half-life at 100 μM: 3.12 min
SMILES: C#CCN(Cc1cc(=O)[nH][nH]1)Cc1c(F)c(F)c(N=[N+]=[N-])c(F)c1F [PRAPP, 5-(((4-Azido-2,3,5,6-tetrafluorobenzyl)(prop-2-yn-1-yl)amino)methyl)-1,2-dihydro-3H-pyrazol-3-one]
